The subject of series [1] is Lovo cells. Kind of series: Cytotoxicity assay (MTS/MTT), growth inhibition of Lovo cells. The class given is cell-based, human. Particulars: concentration of 1 μM. As to the method: LOVO: human colon cancer cell strains;
(§1) Cells were seeded into RPMI 1640 cell culture solution containing 10% fetal bovine serum (100 ku/L of penicillin and 100 ku/L of streptomycin were supplemented). The culture dish was placed in a cell incubator containing 5% CO2 at 37° C. The culture solution was changed once every 2-3 days. Cells were digested with 0.25% trypsin liquid, passaged and collected.
(§2) Cells during the logarithmic growth phase were formulated into a cell suspension having a desired concentration with RPMI 1640 cell culture solution containing 10% fetal bovine serum. The cell suspension was added onto 96 well cell culture plate at 3000-5000 per well (100 μl). After incubating for 24 hours, 100 μl of the test substances with different concentration was added per well. There were four parallel wells for each concentration in this plate. After incubating for 72 to 120 hours, the supernatant was discarded. To each well was added 100 μl of new formulated 0.5 mg/ml MTT serum-free culture solution. After incubating for 4 hours at 37° C., the supernatant was discarded. Formazane was dissolved with 200 μl DMSO. After slightly oscillating for 15 min, absorbance values (OD value) at the detective wavelength of 570 nm and the reference wavelength of 450 nm were determined with enzyme labeling instrument.
(§3) Data was represented by x±s. The inhibition rate=(OD value of the control group−OD value of the administration group)/OD value of the control group×100%. The maximum inhibition rate Imax and the half effective concentration (IC50) represent the anticancer effects. Figures were drawn with MicroCal Origin software. The inhibition curve of the test substance to the growth of tumor cells was fitted by Four Parameters Logistic Program of the software. The half effective concentration (IC50: μg/ml) for inhibiting the proliferation of tumor cells was calculated.
(§4) The exposure concentrations of the test substance were 0.001 μg/ml, 0.003 μg/ml, 0.009 μg/ml, 0.027 μg/ml, 0.082 μg/ml, 0.247 μg/ml, 0.741 μg/ml, 2.222 μg/ml, 6.667 μg/ml and 20 μg/ml. The exposure concentrations of doxorubicin (positive drug) were 1.25 μg/ml, 5 μg/ml, 20 μg/ml. In a 96-well plate, 3000-5000 cells were inoculated in each well and there were four parallel wells for each concentration. Table 1 lists the growth inhibition rate of the compounds against Lovo cells at concentration of 1 μM. Table 3 lists the inhibition rate of the compounds against the hyperplasia of MCF-7 human breast cancer cells at various concentrations.

Series [2] concerns transplanted tumor. The following applies: transplanted tumor in mice; cited from earlier work.
The conditions of series [3]: folds of doxorubicin; cited from earlier work.
The test system of series [4] is A549 cell. Kind of series: Cytotoxicity assay (MTS/MTT), A549 cells. The class given is cell-based, human. Particulars: read-out: Half-Inhibitory Concentration of Cells Growth (EC50), A549 cell. As to the method:
A549: human lung cancer cell strains;
as §1, §2, §3, §4

Series [5] deals with HEPG-2. Kind of series: Cytotoxicity assay (MTS/MTT), HEPG-2 cells. Type of series: cell-based, human. Particulars: read-out: Half-Inhibitory Concentration of Cells Growth (EC50), HEPG-2. The procedure:
HEPG-2: human liver cancer cell strains;
as §1, §2, §3, §4

For series [6], the system named is MCF-7 human breast cancer cells. Description: Cytotoxicity assay (MTS/MTT), MCF-7 cells. Type of series: cell-based. Particulars: for EC50: read-out: Half-Inhibitory Concentration of Cells Growth (EC50), MCF-7 cell. The procedure: MCF-7: human breast cancer cell strains;
as §1, §2, §3, §4

Series [7] has as its system HCT-8 cell. Kind of series: Cytotoxicity assay (MTS/MTT), HCT-8 cells. The class given is cell-based, human. Particulars: read-out: Half-Inhibitory Concentration of Cells Growth (EC50), HCT-8 cell. The procedure:
HCT-8: human colon cancer cell strains;
as §1, §2, §3, §4

Series [8] has as its system Kunming white mice. The following applies: reference value given in the conclusion; cited from earlier work.
Series [9] has as its system Kunming white mice. Description: In vivo MTD test in mice. Particulars: for Abnormality on the body surface / Change of body weight / Mortality rate: tail vein injection. As to the method:
Experiment purpose: preliminary investigation on in vivo toxicity of the compound in Example 1 in mice
Experiment animal: Kunming white mice 20±2 g, purchased from the animal housing in Institute of Radiation Medicine, Chinese Academy of Medical Sciences. Animal license No.: SCXK(JIN)2005-0001.
Preparation of drug solution: After the drug was vortexed to dissolve with 0.5% (V/V) of DMSO, 5% (V/V) of RH40 (ethoxylated hydrogenated castor oil) was added. After mixing with vortex, the volume was determined with normal saline.
(1) Single administration: Nine healthy Kunming male white mice, of which the body weights are 20±2 g, were divided into three groups: 2 mice belong to the control group; 6 mice belong to 20 mg/kg group; 1 mouse belongs to 30 mg/kg group. 20 mg/kg and 30 mg/kg of the compound in Example 1 were administrated once via tail vein injection to the mice in the administration group. The same volume of a solvent was administrated as control to the mice in the control group. After administration, conditions such as action, reflex, locomotor activity and the like of the mice were observed within one hour. Subsequently, the body weights of the mice were recorded every day. Having observed for 14 days after drug withdrawal, the mice were anatomized to observe whether their main organs have an obvious abnormality.
(2) Multiple administrations: Twelve healthy Kunming white mice including six male mice and six female mice, of which the body weights are 20±2 g, were divided into two groups: […]. 10 mg/kg of the test drug was administrated once every three days via tail vein injection to the mice in the administration group. The same volume of a solvent was administrated as the control to the mice in the control group. The mice in each group were administrated five times. After each administration, conditions such as action, reflex, locomotor activity and the like of the mice were observed within one hour. The body weights of mice were recorded every day. Having been fed normally for one week after drug withdrawal, the mice were anatomized to observe whether their main organs have an obvious abnormality.

[10] abbreviates: multiple administrations, 10 mg/kg once every three days, five times.
The mark [11] stands for this setting: single administration, 20 mg/kg and 30 mg/kg.
The mark [12] stands for this setting: MCF-7, compound concentration 0.001 μg/ml.
Where [13] appears, read: MCF-7, compound concentration 0.003 μg/ml.
Where [14] appears, read: MCF-7, compound concentration 0.009 μg/ml.
[15] abbreviates: MCF-7, compound concentration 0.027 μg/ml.
Where [16] appears, read: MCF-7, compound concentration 0.082 μg/ml.
Where [17] appears, read: MCF-7, compound concentration 0.247 μg/ml.
Setting [18] is: MCF-7, compound concentration 0.741 μg/ml.
[19] abbreviates: MCF-7, compound concentration 2.222 μg/ml.
Where [20] appears, read: MCF-7, compound concentration 6.667 μg/ml.
[21] abbreviates: MCF-7, compound concentration 20 μg/ml.

Here are results for 11 compounds from US9115165B2, “Tetracyclic anthraquinone antibiotic derivatives with high activity, process for preparing the same and use thereof” (Tianjin Hemay Bio-Tech Co., Ltd., priority 2008, dated 2015).

Values after ≈ are worked out from the molar mass of the structure shown. Like-named read-outs stand apart in the source and are kept apart here.

For the compound “3′-pyrrolyl-4′-(pyran-2-yl)doxorubicin [Example 6]”, the “Growth Inhibition Rate (%)” value in series [1] came out at 90.94%.
Same read-out and setting: as for “3′-pyrrolyl-5-iminodaunomycin [Example 2]”, the figure is 74.0%.
As for 3′-pyrrolyl-esorubicin [Example 4], in [1], the “Growth Inhibition Rate (%)” value worked out at 40.71%.
3′-pyrrolyl-idarubicin [Example 3]: the “Growth Inhibition Rate (%)” value in series [1] was determined as 88.9%.
Regarding `COc1cccc2c1C(=O)c1c(O)c3c(c(O)c1C2=O)C[C@@](O)(C(=O)CO)C[C@@H]3O[C@H]1C[C@H](N2C=CCC2)[C@H](O)[C@H](C)O1` [AN-201, 2-pyrrolinyl-doxorubicin], the “Anticancer activity at the maximal tolerance dose” value in series [2] was “the anticancer activity was not observed at the maximal tolerance dose”. In series [3], the “Activity in the cellular level relative to doxorubicin” value is listed as 300-1000 folds.
The term inhibition denotes the relative decrease from the control value, in per cent. On to `COc1cccc2c1C(=O)c1c(O)c3c(c(O)c1C2=O)C[C@@](O)(C(=O)CO)C[C@@H]3O[C@H]1C[C@H](N)[C@H](O)[C@H](C)O1` [Doxorubicin, doxorubicin, reference compound], for which the inhibition at 1 µM in [1] (Homo sapiens, read-out: Growth Inhibition Rate (%)) was found to be 50.4%. Besides, the EC50 in series [4] (Homo sapiens, A549) was 660 nM; in series [5] (Homo sapiens, HepG2) it was 2000 nM; in [6] (Homo sapiens, MCF7) it was 1200 nM; in series [7] (Homo sapiens, HCT-8) it was 900 nM. In addition, the “Maximal tolerance dose (MTD)” value in [8] is 8 to 12 mg/kg.
The term IC50 denotes the concentration needed to halve the response being measured. As for `COc1cccc2c1C(=O)c1c(O)c3c(c(O)c1C2=O)C[C@@](O)(C(=O)CO)C[C@@H]3O[C@H]1C[C@H](n2cccc2)[C@H](O)[C@H](C)O1` [Example 1, 3′-pyrrolyldoxorubicin], in series [1] (1 µM), the “Growth Inhibition Rate (%)” value amounted to 80.62%. The EC50 in series [4] (A549 cell) came to 61 nM; in [5] (HEPG-2), 810 nM; in [6] (MCF-7 cell), 210 nM; in [7] (HCT-8 cell), 490 nM. Also, the “Maximal tolerance dose (MTD) relative to doxorubicin” value in series [9] (mice, compared with doxorubicin MTD 8-12 mg/kg) was “at least more than five folds higher than that of doxorubicin”. Further, the “Abnormality on the body surface” value in series [9] (setting [10]) and in series [9] (setting [11]) was “no obvious abnormality on the body surface was observed” throughout. Further, the “Change of body weight” value in [9] (setting [10]) is reported as “The body weight of each mouse increased slowly after administration”; in series [9] (setting [11]) it was “The body weight of each mouse increased after administration”. For the same compound, the Mortality rate result in [9] (setting [10]) is “Death was not found”; in series [9] (single administration, 20 mg/kg and 30 mg/kg, observed 14 days), “Death was not found”. For the same compound, the “A570 nm-OD Values” in series [6] (setting [12]) was determined as 1.629 ± 0.257; in [6] (setting [13]) it was 1.744 ± 0.176; in [6] (setting [14]) it was 1.443 ± 0.079; in [6] (setting [15]), 1.238 ± 0.072; in series [6] (setting [16]), 0.883 ± 0.041; in [6] (setting [17]), 0.703 ± 0.058. Moreover, the “A570 nm-OD Values” was determined as 0.461 ± 0.026 in [6] (setting [18]), 0.302 ± 0.030 in [6] (setting [19]), 0.320 ± 0.030 in [6] (setting [20]) and 0.289 ± 0.019 in series [6] (setting [21]). Further, the “Inhibition Rate (%)” value in series [6] (setting [12]) is reported as 4.27%; in series [6] (setting [13]) it was −2.49%; in [6] (setting [14]), 15.17%; in [6] (setting [15]), 27.22%; in series [6] (setting [16]), 48.09%; in series [6] (setting [17]), 58.68%. In addition, the “Inhibition Rate (%)” value in series [6] (setting [18]) is 72.89%; in series [6] (setting [19]), 82.26%; in [6] (setting [20]) it was 81.18%; in series [6] (setting [21]), 83.03%. Moreover, the “Imax (maximum inhibition rate)” value in series [6] (MCF-7 human breast cancer cells) is listed as “Imax = 83.03%”. Also, the IC50 in series [6] (MCF-7 human breast cancer cells, fitted inhibition curve) came out at 0.06023 ± 0.01528 µg/mL (≈ 0.101 µM).
On to `COc1cccc2c1C(=O)c1c(O)c3c(c(O)c1C2=O)C[C@@](O)(C(=O)CO)C[C@@H]3O[C@H]1C[C@H](n2cccc2)[C@H](O)[C@H](C)O1` [Example 5, 3′-pyrrolyldoxorubicin], for which, in [1], the “Growth Inhibition Rate (%)” value came out at 67.25%.
Turning to `COc1cccc2c1C(=O)c1c(O)c3c(c(O)c1C2=O)CC(O)(C(=O)CO)CC3OC1CC(N2C(=O)CCC2=O)C(O)C(C)O1` (stereo not shown) [Example 7, 3′-succinimidodoxorubicin], the “Growth Inhibition Rate (%)” value in series [1] is reported as 83.31%.
Consider `COc1cccc2c1C(=O)c1c(O)c3c(c(O)c1C2=O)CC(O)(C(=O)COC(=O)CCC(=O)O)CC3OC1CC(n2cccc2)C(O)C(C)O1` (stereo not shown) [Example 13, 3′-pyrrolyldoxorubicin-14-oxo-hydrogen succinate], for which the “Growth Inhibition Rate (%)” value in series [1] is reported as 76.05%. Moreover, the EC50 stood at 2360 nM in series [4] (A549 cell), 150 nM in series [5] (HEPG-2), 930 nM in [6] (MCF-7 cell) and 1870 nM in series [7] (HCT-8 cell).
For `COc1cccc2c1C(=O)c1c(O)c3c(c(O)c1C2=O)CC(O)(C(=O)COC(=O)C(C)N)CC3OC1CC(n2cccc2)C(O)C(C)O1.Cl` (stereo not shown) [Example 38, 3′-pyrrolyldoxorubicin-14-oxo-alaninate hydrochloride], in that order: 78.44%, 230 nM, 1060 nM, 870 nM and 590 nM.
